From ChEMBL document CHEMBL5260825, “Chemical Constituents of Bryophytes: Structures and Biological Activity” (J Nat Prod, 2018)
Values after ≈ are worked out from the molar mass of the structure shown. Values joined by “and” are separate entries in the source; they are usually repeats but may differ in a detail not shown here. Identical values can stand only once.

How the values were obtained:
Type in all cases: functional, cell-based
RAW264.7 = assay: Inhibition of LPS-induced NO production in mouse RAW264.7 cells
HL-60 = assay: Antiproliferative activity against human HL-60 cells assessed as cell growth inhibition
[1] = system: Peritoneal macrophage cell; assay: Inhibition of superoxide anion radical release in guinea pig peritoneal macrophages; settings: Cavia porcellus
P388 = assay: Antiproliferative activity against mouse P388 cells assessed as cell growth inhibition

## C[C@H]1CC[C@@]2(C)[C@@H](CC[C@@H]3O[C@@]32C)[C@]1(C)CCc1ccoc1
RAW264.7
  IC50: 4.5 µM

## C[C@H]1C(O)(O)C[C@@]2(C)[C@@H](CC[C@@H]3O[C@@]32C)[C@]1(C)CCc1ccoc1
RAW264.7
  IC50: 4.5 µM

## C=C1CCC[C@H]2C(=C)C(=O)O[C@@]23[C@@H](C)CC[C@@H]13
HL-60
  IC50: 5.3 µg/mL

## C=C1[C@@H]2CCC3[C@@](CC(=O)[C@@H]4C(C)(C)CCC[C@@]34CO[C@@H]3O[C@H](CO)[C@@H](O)[C@H](O)[C@H]3O)(C2)[C@@H]1O (some centres undefined)
[1]
  IC50: 12.5 µg/mL (≈ 26 µM)

## Oc1cc(CCc2ccccc2O)c2ccoc2c1
RAW264.7
  IC50: 4.5 µM

## C=C1C(=O)[C@@]23CC[C@@H]4C(C)(C)CC[C@H](O)[C@@]4(C)C2=CC[C@@H]1C3
HL-60
  IC50: 7 µM

## C=C1C(=O)O[C@H]2C3=C(C)CCC[C@@]3(C)CC[C@H]12
P388
  IC50: 1.1 µg/mL (≈ 4.73 µM)

## C=C1C(=O)C[C@H]2[C@H]3[C@@H]1[C@]2(COC(C)=O)CCCC3(C)C
P388
  IC50: 1 µg/mL (≈ 3.62 µM)

## C=C1C(=O)[C@@H]2C3=C(CC[C@@H]4C(C)(C)CCC[C@@]34C)C[C@H]1[C@@H]2O
HL-60
  IC50: 1.28 µM

## CC(C)=CCC[C@@]1(C)C=Cc2c(CCc3ccccc3)cc(O)cc2O1
RAW264.7
  IC50: 4.5 µM

## C=C1C(=O)[C@H]2C[C@@H]1CC1=C2[C@@]2(C)[C@H](CC1)C(C)(C)CC[C@@H]2O
HL-60
  IC50: 0.28 µM

## C=C1C(=O)O[C@H]2C/C(C)=C/CC[C@@]3(C)O[C@H]3C[C@H]12
HL-60
  IC50: 8.5 µM

## CC1(C)[C@H](OC(=O)/C=C/c2ccc(O)c(O)c2)CC[C@]2(C)[C@H]3C4C[C@@]12C[C@]43C
[1]
  IC50: 7.5 µg/mL (≈ 19.6 µM)

## CC1=CCc2c(O)cc(CCc3ccccc3O)cc2OC1
RAW264.7
  IC50: 4.5 µM

## C=C1[C@@H]2CCC3[C@@](CC(=O)[C@@H]4C(C)(C)CCC[C@@]34CO[C@@H]3O[C@H](CO)[C@@H](O)[C@H](O)[C@H]3OC(C)=O)(C2)[C@@H]1O (some centres undefined)
[1]
  IC50: 12.5 µg/mL (≈ 23.9 µM)

## CC1(C)[C@H]2CC[C@]3(C)Oc4cc(O)cc(CCc5ccccc5)c4[C@H]1[C@@H]23
RAW264.7
  IC50: 4.5 µM

## C/C1=C\[C@@H]2[C@H](CC/C(C)=C/CC1)C2(C)C=O (some centres undefined)
[1]
  IC50: 12.5 µg/mL (≈ 57.3 µM)

## C[C@H]1C(=O)C2=C[C@H]1CCC(=O)[C@]1(C)CCCC(C)(C)[C@H]1C[C@H]2O
P388
  GI50: 1.9 µg/mL and 5.9 µM
  IC50: 0.8 µg/mL (≈ 2.51 µM)

## C=C1C(=O)[C@]23C[C@H]1CC[C@H]2[C@]1(C)CCCC(C)(C)[C@H]1[C@@H](O)C3
HL-60
  IC50: 0.4 µM

## C=C1C(=O)[C@@]23CC[C@@H]4C(C)(C)CCC[C@@]4(C)C2=CC(=O)[C@@H]1C3
HL-60
  IC50: 0.59 µM

## Cc1cc([C@@]2(C)CCCC2(C)C)cc(O)c1O
[1]
  IC50: 12.5 µg/mL (≈ 53.3 µM)

## C[C@]12COc3cc(CCc4ccccc4)c(C(=O)O)c(O)c3[C@H]1C2
[1]
  IC50: 6 µg/mL (≈ 18.5 µM)

## C=C1C(=O)[C@@]23CC[C@@H]4C(C)(C)CCC[C@@]4(C)[C@@H]2[C@@H](O)C[C@@H]1C3
P388
  GI50: 0.48 µg/mL and 1.6 µM
HL-60
  IC50: 0.49 µM

## CC(C)(O)[C@H]1CC[C@@]2(C)C1CC[C@]1(C)C2CCC2[C@@]3(C)CCCC(C)(C)[C@@H]3[C@@H](O)C[C@]21C (some centres undefined)
P388
  IC50: 1.1 µg/mL (≈ 2.47 µM)

## C=C1C(=O)[C@@H]2C3=C(CC[C@@H]4C(C)(C)CC[C@H](O)[C@@]34C)C[C@H]1[C@@H]2O
HL-60
  IC50: 0.78 µM

## C=C[C@@]1(O)CC(=O)[C@@]2(C(=O)OC)[C@H](C)CC[C@@]2(C)[C@@H]1C
HL-60
  IC50: 2.7 µM

## C=C1C(=O)O[C@H]2/C=C(\C)CC/C=C(\C)CC[C@H]12
P388
  IC50: 0.7 µg/mL (≈ 3.01 µM)

## C=C1C(=O)C[C@H]2[C@H]3[C@@H]1[C@]2(C)CCCC3(C)C
P388
  IC50: 1 µg/mL (≈ 4.58 µM)

## CC1(C)CCC[C@]2(C)CC3=CC(=O)O[C@@]3(O)C[C@@H]12
P388
  IC50: 2.3 µg/mL (≈ 9.19 µM)

## C=C1CC[C@H]2[C@@H]([C@H]3C(C)=COC(=O)[C@@H]13)C2(C)C
[1]
  IC50: 12.5 µg/mL (≈ 53.8 µM)

## C=C1C(=O)[C@H]2C[C@@H]1CC1=C2[C@]2(C)CCCC(C)(C)[C@H]2CC1
HL-60
  IC50: 1.21 µM

## C=C1C(=O)O[C@@H]2/C=C(\C)CC/C=C(\C)CC(OC(C)=O)[C@@H]12 (some centres undefined)
HL-60
  IC50: 4.6 µM
